Measured values from patent US7745152B2, “Method for determining genotoxicity” (priority 2004, dated 2010).
Counter-ions that a name gives are not always drawn. Like-named read-outs stand apart in the source and are kept apart here. Blank lines part the entries; values can stand above or below the compound they belong to.

Key:
C2C12 cells [1] = system: C2C12 cells
DDA3 = settings: cited from earlier work
Dda3 mRNA = assay: RT-PCR assay of Dda3 mRNA in C2C12 cells; type: cell-based, mouse; settings: C2C12, 24 hour drug, 18 hour differentiation; relative to vehicle
4833427G06Rik mRNA = assay: RT-PCR assay of 4833427G06Rik (Dog1) mRNA in C2C12 cells; type: cell-based, mouse; settings: C2C12, 24 hour drug, 18 hour differentiation; relative to vehicle
C2C12 cells [2] = assay: Genomic assay: gene expression analysis (Affymetrix Murine Genome MOE430) in C2C12 cells induced to differentiate
[3] = C2C12, 24 h drug (μg/ml: BLEO 0.5, CIS 0.6, ETOP 0.5, MMS 0.008, MNNG 4, VINC 0.6), then 6, 18 or 24 h differentiation, vs DMSO

Compound: CCOS(C)(=O)=O [Methanesulfonate ethyl ester (EMS), Methanesulfonate ethyl ester]
Lowest effective dose (C2C12 cells [1]; mouse, 24 h): 100 µg/mL

Compound: CO[C@@]12[C@H](COC(N)=O)C3=C(C(=O)C(C)=C(N)C3=O)N1C[C@@H]1N[C@@H]12 [Mitomycin C]
DDA3 expression in NIH3T3 cells exposed to DNA damaging agents (DDA3): upregulated

Compound: CC(=O)O[C@H]1C(=O)[C@@]2(C)[C@H]([C@H](OC(=O)c3ccccc3)[C@]3(O)C[C@H](OC(=O)[C@H](O)[C@@H](NC(=O)c4ccccc4)c4ccccc4)C(C)=C1C3(C)C)[C@]1(OC(C)=O)CO[C@@H]1C[C@@H]2O [Paclitaxel]
Lowest effective dose (C2C12 cells [1]; mouse, 24 h): 0.002 µg/mL

Compound: COc1cccc2c1C(=O)c1c(O)c3c(c(O)c1C2=O)C[C@@](O)(C(=O)CO)C[C@@H]3O[C@H]1C[C@H](N)[C@H](O)[C@H](C)O1 [adriamycin]
DDA3 expression in NIH3T3 cells exposed to DNA damaging agents (DDA3): upregulated

Compound: Bleomycin sulfate
Lowest effective dose (C2C12 cells [1]): 1 µg/mL

Now from value to compound, other results behind:

Lowest effective dose (C2C12 cells [1]; mouse, 24 h): 0.0006 µg/mL
Compound: CC[C@]1(O)C[C@@H]2CN(CCc3c([nH]c4ccccc34)[C@@](C(=O)OC)(c3cc4c(cc3OC)N(C)[C@H]3[C@@](O)(C(=O)OC)[C@H](OC(C)=O)[C@]5(CC)C=CCN6CC[C@]43[C@@H]65)C2)C1 [Vinblastine sulfate]
relative expression of Dda3 mRNA (Dda3 mRNA): much larger increase in expression of these indicator genes than did vincristine | relative expression of 4833427G06Rik mRNA (4833427G06Rik mRNA): much larger increase in expression of these indicator genes than did vincristine

Lowest effective dose (C2C12 cells [1]; mouse, 24 h): 0.002 µg/mL | Fold change in expression: Ephx1, Epoxide hydrolase 1 (microsomal xenobiotic hydrolase) (C2C12 cells [2]; [3]): 1.10 fold | Fold change in expression: Hgf, Hepatocyte growth factor (scatter factor) (C2C12 cells [2]; [3]): 2.00 fold
Compound: CC[C@]1(O)C[C@H]2CN(CCc3c([nH]c4ccccc34)[C@@](C(=O)OC)(c3cc4c(cc3OC)N(C=O)[C@H]3[C@@](O)(C(=O)OC)[C@H](OC(C)=O)[C@]5(CC)C=CCN6CC[C@]43[C@@H]65)C2)C1 [Vincristine sulfate]
Fold change in expression: 0610013D04 Rik, RIKEN cDNA (C2C12 cells [2]; [3]): 2.00 fold | Fold change in expression: 1600013K19 Rik, RIKEN cDNA (C2C12 cells [2]; [3]): 0.98 fold | Fold change in expression: 2610005B21 Rik, RIKEN cDNA (C2C12 cells [2]; [3]): 0.81 fold | Fold change in expression: 2610019I03 RIK, RIKEN cDNA (C2C12 cells [2]; [3]): 0.76 fold | Fold change in expression: 2610509G12 Rik, RIKEN cDNA (C2C12 cells [2]; [3]): 0.55 fold | Fold change in expression: 2810417H13 Rik, RIKEN cDNA (C2C12 cells [2]; [3]): 0.96 fold | Fold change in expression: 4833427G06 Rik, RIKEN cDNA (C2C12 cells [2]; [3]): 0.98 fold | Fold change in expression: 6530401L14 Rik, RIKEN cDNA (C2C12 cells [2]; [3]): 0.53 fold | Fold change in expression: 9030617O03 Rik, RIKEN cDNA (C2C12 cells [2]; [3]): 1.20 fold | Fold change in expression: Anxa8, Annexin A8 (C2C12 cells [2]; [3]): 1.80 fold | Fold change in expression: Asflb, ASF1 anti-silencing function 1 homolog B (Saccharomyces) (C2C12 cells [2]; [3]): 0.71 fold | Fold change in expression: Birc5, Baculoviral IAP repeat-containing 5 (C2C12 cells [2]; [3]): 0.87 fold | Fold change in expression: Brca1, Breast cancer 1 (C2C12 cells [2]; [3]): 0.51 fold | Fold change in expression: Calmbp1, Calmodulin binding protein 1 (C2C12 cells [2]; [3]): 0.40 fold | Fold change in expression: Capn6, Calpain 6 (C2C12 cells [2]; [3]): 0.83 fold | Fold change in expression: Ccna2, Cyclin A2 (C2C12 cells [2]; [3]): 0.82 fold | Fold change in expression: Ccng1, Cyclin G1 (C2C12 cells [2]; [3]): 1.80 fold | Fold change in expression: Cilp, Cartilage intermediate layer pro (C2C12 cells [2]; [3]): 0.77 fold | Fold change in expression: Cks2, CDC28 protein kinase regulatory subunit 2 (C2C12 cells [2]; [3]): 0.78 fold | Fold change in expression: D4Ertd421e, DNA segment, Chr 4, ERATO Doi 421, expressed (C2C12 cells [2]; [3]): 0.64 fold | Fold change in expression: Dda3-pending, Differential display and activated by p53 (C2C12 cells [2]; [3]): 2.00 fold | Fold change in expression: E2f7, E2F transcription factor 7 (C2C12 cells [2]; [3]): 0.63 fold | Fold change in expression: E030024M05 Rik, RIKEN cDNA (C2C12 cells [2]; [3]): 1.20 fold | Fold change in expression: E130315B21 Rik, RIKEN cDNA (C2C12 cells [2]; [3]): 0.70 fold | Fold change in expression: Fbxo5, f-box only protein 31 (C2C12 cells [2]; [3]): 0.54 fold | Fold change in expression: Foxm1, Forkhead box M1 (C2C12 cells [2]; [3]): 0.68 fold | Fold change in expression: Gmnn, Geminin (C2C12 cells [2]; [3]): 0.65 fold | Fold change in expression: Gnpi, Glucosamine-6-phosphate deaminase (C2C12 cells [2]; [3]): 1.60 fold | Fold change in expression: Hmgb2, High mobility group box 2 (C2C12 cells [2]; [3]): 0.57 fold | Fold change in expression: Hmgb3, High mobility group box 3 (C2C12 cells [2]; [3]): 0.67 fold | Fold change in expression: Hmmr, Hyaluronan mediated motility receptor (RHAMM) (C2C12 cells [2]; [3]): 0.52 fold | Fold change in expression: Kifl1, Kinesin 11 (C2C12 cells [2]; [3]): 0.46 fold | Fold change in expression: Lek1, Leucine, glutamic acid, lysine family 1 protein (C2C12 cells [2]; [3]): 0.45 fold | Fold change in expression: Ly6e, Lymphocyte antigen 6 complex, locus E (C2C12 cells [2]; [3]): 1.30 fold | Fold change in expression: M-phosph1, M-phase phosphoprotein (C2C12 cells [2]; [3]): 0.37 fold | Fold change in expression: MGC:32192, Mus musculus cDNA clone MGC: 32192 IMAGE: 5006129 (C2C12 cells [2]; [3]): 0.71 fold | Fold change in expression: Mad2l1, MAD2 (mitotic arrest deficient, homolog)-like 1 (yeast) (C2C12 cells [2]; [3]): 0.64 fold | Fold change in expression: Mad3, Max dimerization protein 3 (C2C12 cells [2]; [3]): 0.89 fold | Fold change in expression: Mcm3, Minichromosome maintenance deficient 3 (Saccharomyces) (C2C12 cells [2]; [3]): 0.69 fold | Fold change in expression: Mcmd4, Minichromosome maintenance deficient 4 homolog (C2C12 cells [2]; [3]): 0.64 fold | Fold change in expression: Mki67, Antigen identified by MAb Ki67 (C2C12 cells [2]; [3]): 0.43 fold | Fold change in expression: Mmhead, Mus musculus 15 day embryo head cDNA clone (C2C12 cells [2]; [3]): 0.95 fold | Fold change in expression: Nos3, Nitric oxide synthase 3, endothelial cell (C2C12 cells [2]; [3]): 1.30 fold | Fold change in expression: Np95, Nuclear protein 95 (C2C12 cells [2]; [3]): 0.71 fold | Fold change in expression: Nusap1, Nucleolar and spindle associated protein 1 (C2C12 cells [2]; [3]): 0.56 fold | Fold change in expression: Osbp16, Oxysterol binding protein-like 6 (C2C12 cells [2]; [3]): 1.10 fold | Fold change in expression: Pbk, PDZ binding kinase (C2C12 cells [2]; [3]): 0.62 fold | Fold change in expression: Pcna, Proliferating cell nuclear antigen (C2C12 cells [2]; [3]): 0.70 fold | Fold change in expression: Phex, Phosphate regulating neutral endopeptidase (X chromosome) (C2C12 cells [2]; [3]): 0.67 fold | Fold change in expression: Plf, Proliferin (C2C12 cells [2]; [3]): 1.10 fold | Fold change in expression: Pola1, DNA polymerase alpha 1, 180 kDa (C2C12 cells [2]; [3]): 0.51 fold | Fold change in expression: Prc1, Protein regulator of cytokinesis 1 (C2C12 cells [2]; [3]): 0.63 fold | Fold change in expression: Prelp, Proline arginine-rich end leucine-rich repeat (C2C12 cells [2]; [3]): 0.58 fold | Fold change in expression: Prim1, DNA primase, p49 subunit (C2C12 cells [2]; [3]): 0.54 fold | Fold change in expression: Rad51ap1, RAD51-associated protein 1 (C2C12 cells [2]; [3]): 0.59 fold | Fold change in expression: Rbl1, Retinoblastoma-like 1 (p107) (C2C12 cells [2]; [3]): 0.67 fold | Fold change in expression: Serpine1, Ser (or Cys) proteinase inhibitor, clade E, member 1 (C2C12 cells [2]; [3]): 1.00 fold | Fold change in expression: Sesn2, Sestrin 2 (C2C12 cells [2]; [3]): 2.38 fold | Fold change in expression: Shcbp1, Shc SH2-domain binding protein 1 (C2C12 cells [2]; [3]): 0.52 fold | Fold change in expression: Slc35a5, Solute carrier family 35, member A5 (C2C12 cells [2]; [3]): 1.30 fold | Fold change in expression: Smc2l1, SMC2 structural maintenance of chromosomes 2-like 1 (C2C12 cells [2]; [3]): 0.75 fold | Fold change in expression: Stk18, Serine/threonine kinase 18 (C2C12 cells [2]; [3]): 0.63 fold | Fold change in expression: Tacc3, Transforming, acidic coiled-coil containing protein 3 (C2C12 cells [2]; [3]): 0.73 fold | Fold change in expression: Tagln, Transgelin (smooth muscle 22 protein) (C2C12 cells [2]; [3]): 0.84 fold | Fold change in expression: Tk1, Thymidine kinase 1 (C2C12 cells [2]; [3]): 0.62 fold | Fold change in expression: Top2a, Topoisomerase (DNA) II alpha (C2C12 cells [2]; [3]): 0.52 fold | Fold change in expression: Trp53inp1, Transformation related protein, 53 inducible nuclear protein 1 (C2C12 cells [2]; [3]): 1.60 fold | Fold change in expression: Usp30, Ubiquitin specific protease 30 (C2C12 cells [2]; [3]): 2.00 fold | Fold change in expression: Wig1, Wild-type p53-induced gene 1 (C2C12 cells [2]; [3]): 1.20 fold | pattern of gene expression changes (C2C12 cells [2]; C2C12, vincristine sulfate 0.6 μg/ml 24 h, relative to the five other drugs tested): induced a distinct pattern of gene expression changes relative to the five other drugs tested | Fold change in expression: Slc19a2, Solute carrier family 19 (thiamine transporter), member 2 (C2C12 cells [2]; first Slc19a2 entry (r16), C2C12, 24 h drug (μg/ml: BLEO 0.5, CIS 0.6, ETOP 0.5, MMS 0.008, MNNG 4, VINC 0.6), then 6, 18 or 24 h differentiation, vs DMSO): 1.40 fold | Fold change in expression: Slc19a2, Solute carrier family 19 (thiamine transporter), member 2 (C2C12 cells [2]; second Slc19a2 entry (r72), C2C12, 24 h drug (μg/ml: BLEO 0.5, CIS 0.6, ETOP 0.5, MMS 0.008, MNNG 4, VINC 0.6), then 6, 18 or 24 h differentiation, vs DMSO): 1.10 fold
